Laboratory results as given in US11078216B2, “Bisaryl amides as NRF2 activators” (GLAXOSMITHKLINE INTELLECTUAL PROPERTY DEVELOPMENT LIMITED, priority 2016, dated 2021).

Tested on: NRF2 (NQO1 activity as marker for NRF2 activation), BEAS-2B cells
Assay: BEAS-2B NQO1 MTT Assay
Assay type: cell-based
Conditions: Homo sapiens, EC50 of NQO1 specific activity induction, 48 hours incubation, read-out: EC50
In short: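 BEAS-2B cells were exposed to compound for 48 h at 37° C, 5% CO2, then lysed. NQO1 activity was measured kinetically by MTT reduction at 570 nm over 30 minutes; EC50 came from 3-parameter fit of Delta OD/min versus log concentration.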

SMILES | EC50
Cc1ccc([C@@H](c2ccc3c(nnn3C)c2C)C(C)(C)C(=O)Nc2cccnc2)cc1Cn1ccnc1CC1CCCCCC1 [Example 173, (S)-3-(3-((2-(cycloheptylmethyl)-1H-imidazol-1-yl)methyl)-4-methylphenyl)-3-(1,4-dimethyl-1H-benzo[d][1,2,3]triazol-5-yl)-2,2-dimethyl-N-(pyridin-3-yl)propanamide] | 10 to 100 nM
CCn1nnc2c(C)c([C@@H](CC(=O)Nc3cccnc3)c3ccc(C)c(CN4C[C@@H](C)Cc5ccc(C(F)(F)F)cc5S4(=O)=O)c3)ccc21 [Example 174, (S)-3-(1-ethyl-4-methyl-1H-benzo[d][1,2,3]triazol-5-yl)-3-(4-methyl-3-(((S)-4-methyl-1,1-dioxido-8-(trifluoromethyl)-4,5-dihydrobenzo[f][1,2]thiazepin-2(3H)-yl)methyl)phenyl)-N-(pyridin-3-yl)propanamide] | 10 to 100 nM
CCC1CCN(Cc2nccn2Cc2cc([C@@H](c3ccc4c(nnn4C)c3C)C(C)(C)C(=O)Nc3cccnc3)ccc2Cl)CC1 [Example 175, (S)-3-(4-chloro-3-((2-((4-ethylpiperidin-1-yl)methyl)-1H-imidazol-1-yl)methyl)phenyl)-3-(1,4-dimethyl-1H-benzo[d][1,2,3]triazol-5-yl)-2,2-dimethyl-N-(pyridin-3-yl)propanamide] | 100 to 1000 nM
CC[C@@H]1CN(Cc2cc([C@@H](c3ccc4c(nnn4CC)c3C)[C@@H](C)C(=O)Nc3cccnc3)ccc2C)S(=O)(=O)c2cccnc2O1 [Example 176] | 1 to 10 nM
CCn1nnc2c(C)c([C@H](c3ccc(C)c(CN4C[C@@H](C)Cc5cc(C(F)(F)F)ccc5S4(=O)=O)c3)[C@@H](C)C(=O)Nc3cccnc3)ccc21 [Example 177, (2R,3S)-3-(1-ethyl-4-methyl-1H-benzo[d][1,2,3]triazol-5-yl)-2-methyl-3-(4-methyl-3-(((S)-4-methyl-1,1-dioxido-7-(trifluoromethyl)-4,5-dihydrobenzo[f][1,2]thiazepin-2(3H)-yl)methyl)phenyl)-N-(pyridin-3-yl)propanamide] | 1 to 10 nM
CCn1nnc2c(C)c([C@@H](CC(=O)Nc3cccnc3)c3ccc(C)c(CN4C[C@@H](C)Cc5ccc(F)cc5S4(=O)=O)c3)ccc21 [Example 178, (S)-3-(1-ethyl-4-methyl-1H-benzo[d][1,2,3]triazol-5-yl)-3-(3-(((S)-8-fluoro-4-methyl-1,1-dioxido-4,5-dihydrobenzo[f][1,2]thiazepin-2(3H)-yl)methyl)-4-methylphenyl)-N-(pyridin-3-yl)propanamide] | 10 to 100 nM
CCn1nnc2c(C)c([C@H](c3ccc(C)c(CN4C[C@@H](C)Cc5ccc(C(F)(F)F)cc5S4(=O)=O)c3)[C@@H](C)C(=O)Nc3cccnc3)ccc21 [Example 179, (2R,3S)-3-(1-ethyl-4-methyl-1H-benzo[d][1,2,3]triazol-5-yl)-2-methyl-3-(4-methyl-3-(((S)-4-methyl-1,1-dioxido-8-(trifluoromethyl)-4,5-dihydrobenzo[f][1,2]thiazepin-2(3H)-yl)methyl)phenyl)-N-(pyridin-3-yl)propanamide] | 1 to 10 nM
CC[C@H]1Cc2ccc(C(F)(F)F)cc2S(=O)(=O)N(Cc2cc([C@@H](c3ccc4c(nnn4CC)c3C)[C@@H](C)C(=O)Nc3cccnc3)ccc2C)C1 [Example 180, (2R,3S)-3-(3-(((S)-4-ethyl-1,1-dioxido-8-(trifluoromethyl)-4,5-dihydrobenzo[f][1,2]thiazepin-2(3H)-yl)methyl)-4-methylphenyl)-3-(1-ethyl-4-methyl-1H-benzo[d][1,2,3]triazol-5-yl)-2-methyl-N-(pyridin-3-yl)propanamide] | 1 to 10 nM
CCn1nnc2c(C)c([C@@H](CC(=O)Nc3cccnc3)c3ccc(C)c(CN4C[C@@H](C)Cc5ccc(C(F)(F)F)cc5S4(=O)=O)c3)cc(OC)c21 [Example 181, (S)-3-(1-ethyl-7-methoxy-4-methyl-1H-benzo[d][1,2,3]triazol-5-yl)-3-(4-methyl-3-(((S)-4-methyl-1,1-dioxido-8-(trifluoromethyl)-4,5-dihydrobenzo[f][1,2]thiazepin-2(3H)-yl)methyl)phenyl)-N-(pyridin-3-yl)propanamide] | 10 to 100 nM
CC[C@@H]1CN(Cc2cc([C@@H](c3ccc4c(nnn4CC)c3C)[C@@H](C)C(N)=O)ccc2C)Cc2ncccc2O1 [Example 182, (2R,3S)-3-(3-(((R)-2-ethyl-2,3-dihydropyrido[2,3-f][1,4]oxazepin-4(5H)-yl)methyl)-4-methylphenyl)-3-(1-ethyl-4-methyl-1H-benzo[d][1,2,3]triazol-5-yl)-2-methylpropanamide] | 100 to 1000 nM
CC[C@H]1Cc2cccc(C(F)(F)F)c2CN(Cc2cc([C@@H](c3ccc4c(nnn4CC)c3C)C(C)(C)C(N)=O)ccc2C)C1 [Example 183, (S)-3-(1-ethyl-4-methyl-1H-benzo[d][1,2,3]triazol-5-yl)-3-(3-(((S)-4-ethyl-9-(trifluoromethyl)-4,5-dihydro-1H-benzo[c]azepin-2(3H)-yl)methyl)-4-methylphenyl)-2,2-dimethylpropanamide] | 100 to 1000 nM
CC[C@@H]1CN(Cc2cc([C@@H](c3ccc4c(nnn4CC)c3C)C(C)(C)C(N)=O)ccc2C)Cc2ncccc2O1 [Example 184, (S)-3-(3-(((R)-2-ethyl-2,3-dihydropyrido[2,3-f][1,4]oxazepin-4(5H)-yl)methyl)-4-methylphenyl)-3-(1-ethyl-4-methyl-1H-benzo[d][1,2,3]triazol-5-yl)-2,2-dimethylpropanamide] | 100 to 1000 nM
CC[C@@H]1CN(Cc2cc([C@@H](CCc3cn(C4CCC4)nn3)C(C)(C)C(N)=O)ccc2Cl)S(=O)(=O)c2ccccc2O1 [Example 185, (R)-3-(4-chloro-3-(((R)-4-ethyl-1,1-dioxido-3,4-dihydro-2H-benzo[b][1,4,5]oxathiazepin-2-yl)methyl)phenyl)-5-(1-cyclobutyl-1H-1,2,3-triazol-4-yl)-2,2-dimethylpentanamide] | 100 to 1000 nM
CC[C@@H]1CN(Cc2cc([C@@H](c3ccc4c(nnn4CC)c3C)C(C)(C)C(=O)Nc3cnc(CO[Si](C)(C)C(C)(C)C)nc3)ccc2C)S(=O)(=O)c2ccccc2O1 [Example 186, (S)—N-(2-(((tert-Butyldimethylsilyl)oxy)methyl)pyrimidin-5-yl)-3-(3-(((R)-4-ethyl-1,1-dioxido-3,4-dihydro-2H-benzo[b][1,4,5]oxathiazepin-2-yl)methyl)-4-methylphenyl)-3-(1-ethyl-4-methyl-1H-benzo[d][1,2,3]triazol-5-yl)-2,2-dimethylpropanamide] | 100 to 1000 nM
CC[C@@H]1CN(Cc2cc([C@@H](c3ccc4c(nnn4CC)c3C)C(C)(C)C(=O)Nc3cnc(C(C)(C)O[Si](C)(C)C(C)(C)C)nc3)ccc2C)S(=O)(=O)c2ccccc2O1 [Example 187, (S)-N-(2-(2-((tert-Butyldimethylsilyl)oxy)propan-2-yl)pyrimidin-5-yl)-3-(3-(((R)-4-ethyl-1,1-dioxido-3,4-dihydro-2H-benzo[b][1,4,5]oxathiazepin-2-yl)methyl)-4-methylphenyl)-3-(1-ethyl-4-methyl-1H-benzo[d][1,2,3]triazol-5-yl)-2,2-dimethylpropanamide] | 1000 to 10000 nM
